How the values were obtained:
EGFR (ErbB1) T790M L858R = EGFR (ErbB1) T790M L858R (Homo sapiens (Human), UniProt P00533, L858R/T790M); experiment: Z'-LYTE kinase inhibition assay, EGFR L858R/T790M; assay type: biochemical; conditions: read-out: % inhibition against EGFR L858R/T790M (Compound at 0.0137 μM)
Procedure: Inhibitory activities of compounds against BTK, EGFR and EGFR mutants (EGFR L858R, EGFR T790M, EGFR L858R/T790M), FGFR1, FGFR2, JAK2, JAK3 and KDR were measured by Invitrogen using Z'-LYTE® Method as briefly described in the following. Test Compounds are screened in 1% DMSO (final) in the well. For 10 point titrations, 3-fold serial dilutions are conducted from the starting concentration. All ATP Solutions are diluted to a 4× working concentration in Kinase Buffer (50 mM HEPES pH 7.5, 0.01% BRIJ-35, 10 mM MgCl2, 1 mM EGTA). Peptide/Kinase Mixtures are diluted to a 2× working concentration in the appropriate Kinase Buffers as described below. (iv) Peptide/Kinase Mixtures for Measurement of EGFR (ErbB1) T790M L858R: The 2×EGFR (ErbB1) […] mixture is prepared in 50 mM HEPES pH 6.5, 0.01% BRIJ-35, 10 mM MgCl2, 1 mM EGTA, 0.02% NaN3. […] After the 1 hour Kinase Reaction incubation, 5 μL of a 1:64 dilution of Development Reagent B is added. Reaction starts by 30-second shaking of mixture consisting of 2.5 μL 4× test compound, […] 2× kinase reaction mixture and 2.5 μL 4×ATP Solution on Bar-coded Corning, low volume NBS, black 384-well plate (Corning Cat. #3676). Then the mixture is incubated for 60-minute at room temperature for the kinase reaction, followed by addition of 5 μL of a 1:1024 dilution of development reagent A and 30-second plate shake. The mixture is then incubated for another 60-minute at room temperature for development reaction. Finally fluorescence is read by plate reader. To determine IC50 of a compound against EGFR, EGFR mutant and other kinases, a series of concentrations of the compound were tested for the inhibition.

H1975 cells = experiment: Inhibition of cancer cell growth, MTT assay, H1975; conditions: Homo sapiens, NCI-H1975, 72 h, read-out: IC50 in H1975 cells
EGFR (ErbB1) = EGFR (ErbB1) (Homo sapiens (Human), UniProt P00533); experiment: Z'-LYTE kinase inhibition assay, EGFR; assay type: biochemical; conditions: read-out: % inhibition against EGFR (Compound at 0.041 μM)
Chain of EGFR (ErbB1) (P00533 25-1210): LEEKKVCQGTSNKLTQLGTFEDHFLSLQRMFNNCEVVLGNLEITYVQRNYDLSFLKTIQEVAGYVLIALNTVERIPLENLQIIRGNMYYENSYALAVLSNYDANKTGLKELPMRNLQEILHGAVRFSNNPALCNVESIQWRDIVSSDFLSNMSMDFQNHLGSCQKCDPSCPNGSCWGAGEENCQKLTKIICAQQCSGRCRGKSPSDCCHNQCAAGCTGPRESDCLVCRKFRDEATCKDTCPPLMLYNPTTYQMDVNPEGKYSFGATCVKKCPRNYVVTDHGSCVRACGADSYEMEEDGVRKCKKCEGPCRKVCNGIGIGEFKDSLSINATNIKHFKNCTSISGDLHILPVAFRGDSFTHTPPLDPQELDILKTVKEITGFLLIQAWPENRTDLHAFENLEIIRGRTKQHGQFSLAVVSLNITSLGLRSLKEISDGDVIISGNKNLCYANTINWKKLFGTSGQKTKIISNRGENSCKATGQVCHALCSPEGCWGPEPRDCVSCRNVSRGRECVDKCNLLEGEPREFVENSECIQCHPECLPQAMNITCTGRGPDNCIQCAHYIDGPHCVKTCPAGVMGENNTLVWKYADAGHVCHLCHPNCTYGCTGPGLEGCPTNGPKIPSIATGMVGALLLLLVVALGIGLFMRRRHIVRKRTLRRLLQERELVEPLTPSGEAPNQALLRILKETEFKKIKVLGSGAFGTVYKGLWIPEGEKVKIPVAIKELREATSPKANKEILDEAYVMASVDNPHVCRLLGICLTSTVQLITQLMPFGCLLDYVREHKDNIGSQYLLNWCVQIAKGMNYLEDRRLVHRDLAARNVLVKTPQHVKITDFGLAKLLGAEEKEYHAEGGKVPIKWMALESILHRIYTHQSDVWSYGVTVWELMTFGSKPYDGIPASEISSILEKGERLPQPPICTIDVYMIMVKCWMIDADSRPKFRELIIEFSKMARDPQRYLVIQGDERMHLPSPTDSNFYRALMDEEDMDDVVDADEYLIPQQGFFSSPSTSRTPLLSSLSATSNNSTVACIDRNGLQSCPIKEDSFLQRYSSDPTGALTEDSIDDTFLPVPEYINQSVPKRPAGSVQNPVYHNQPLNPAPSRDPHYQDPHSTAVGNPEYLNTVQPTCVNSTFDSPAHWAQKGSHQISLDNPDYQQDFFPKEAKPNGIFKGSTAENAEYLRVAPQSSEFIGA
Procedure: Inhibitory activities of compounds against BTK, EGFR and EGFR mutants (EGFR L858R, EGFR T790M, EGFR L858R/T790M), FGFR1, FGFR2, JAK2, JAK3 and KDR were measured by Invitrogen using Z'-LYTE® Method as briefly described in the following. Test Compounds are screened in 1% DMSO (final) in the well. For 10 point titrations, 3-fold serial dilutions are conducted from the starting concentration. All ATP Solutions are diluted to a 4× working concentration in Kinase Buffer (50 mM HEPES pH 7.5, 0.01% BRIJ-35, 10 mM MgCl2, 1 mM EGTA). Peptide/Kinase Mixtures are diluted to a 2× working concentration in the appropriate Kinase Buffers as described below. (i) Peptide/Kinase Mixtures for Measurement of EGFR (ErbB1): The 2×EGFR (ErbB1)/[…] mixture is prepared in 50 mM HEPES pH 7.5, 0.01% BRIJ-35, 10 mM MgCl2. 4 mM MnCl2, 1 mM EGTA, 2 mM DTT. The final 10 μL Kinase Reaction consists of 1.1-5.25 ng EGFR (ErbB1) and 2 μM […] in 50 mM HEPES pH 7.5, 0.01% BRIJ-35, 10 mM MgCl2, 2 mM MnCl2. 1 mM EGTA, 1 mM DTT. After the 1 hour Kinase Reaction incubation, 5 μL of a 1:64 dilution of Development Reagent B is added. Reaction starts by 30-second shaking of mixture consisting of 2.5 μL 4× test compound, […] 2× kinase reaction mixture and 2.5 μL 4×ATP Solution on Bar-coded Corning, low volume NBS, black 384-well plate (Corning Cat. #3676). Then the mixture is incubated for 60-minute at room temperature for the kinase reaction, followed by addition of 5 μL of a 1:1024 dilution of development reagent A and 30-second plate shake. The mixture is then incubated for another 60-minute at room temperature for development reaction. Finally fluorescence is read by plate reader. To determine IC50 of a compound against EGFR, EGFR mutant and other kinases, a series of concentrations of the compound were tested for the inhibition.

Chain of EGFR (ErbB1) T790M L858R (P00533 25-1210 T790M/L858R): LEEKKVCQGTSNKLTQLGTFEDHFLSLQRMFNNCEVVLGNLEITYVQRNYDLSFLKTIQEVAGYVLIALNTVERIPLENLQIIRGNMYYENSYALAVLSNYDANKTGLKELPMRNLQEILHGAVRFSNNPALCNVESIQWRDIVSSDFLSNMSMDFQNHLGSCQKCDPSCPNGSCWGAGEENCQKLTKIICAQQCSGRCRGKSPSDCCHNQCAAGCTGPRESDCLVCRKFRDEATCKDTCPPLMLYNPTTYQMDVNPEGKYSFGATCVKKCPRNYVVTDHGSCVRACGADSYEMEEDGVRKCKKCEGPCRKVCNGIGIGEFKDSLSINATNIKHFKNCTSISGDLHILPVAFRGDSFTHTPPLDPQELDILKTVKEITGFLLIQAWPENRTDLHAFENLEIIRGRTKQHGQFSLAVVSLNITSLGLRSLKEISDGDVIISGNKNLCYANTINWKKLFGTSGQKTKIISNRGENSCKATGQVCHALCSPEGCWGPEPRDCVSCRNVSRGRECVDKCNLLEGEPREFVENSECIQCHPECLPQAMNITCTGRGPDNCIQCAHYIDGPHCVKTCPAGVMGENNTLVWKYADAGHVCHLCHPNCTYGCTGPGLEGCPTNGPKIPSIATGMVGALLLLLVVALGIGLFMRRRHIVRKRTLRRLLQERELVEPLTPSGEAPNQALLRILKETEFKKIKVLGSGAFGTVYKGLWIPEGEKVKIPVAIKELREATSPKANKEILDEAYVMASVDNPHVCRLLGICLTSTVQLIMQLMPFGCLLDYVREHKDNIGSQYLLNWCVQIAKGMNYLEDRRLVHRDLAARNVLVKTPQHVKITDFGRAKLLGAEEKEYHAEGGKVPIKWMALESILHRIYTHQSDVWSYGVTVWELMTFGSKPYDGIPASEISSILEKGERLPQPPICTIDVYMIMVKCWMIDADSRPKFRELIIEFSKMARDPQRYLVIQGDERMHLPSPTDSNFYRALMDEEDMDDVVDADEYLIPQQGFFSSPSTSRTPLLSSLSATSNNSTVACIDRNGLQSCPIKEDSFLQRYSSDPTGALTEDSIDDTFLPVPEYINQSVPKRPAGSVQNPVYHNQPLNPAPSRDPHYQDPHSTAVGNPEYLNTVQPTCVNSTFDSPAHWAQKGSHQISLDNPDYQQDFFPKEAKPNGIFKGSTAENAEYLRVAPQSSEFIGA

In the case of `C=CC(=O)Nc1cccc(-c2cccc3cnc(Nc4ccc(N5CCC(O)C5)cc4)nc23)c1` (stereo not drawn) [Example C098, N-(3-(2-((4-(3-hydroxypyrrolidin-1-yl)phenyl)amino)quinazolin-8-yl)phenyl)acrylamide], the inhibition at 0.0137 µM (EGFR (ErbB1) T790M L858R) is reported as under 50%, the IC50 (H1975 cells) is reported as under 0.1 µM and the inhibition at 0.041 µM (EGFR (ErbB1)) is reported as under 50%.

`C=CC(=O)Nc1ccc(C#N)c(-c2cccc3cnc(Nc4ccc(N5CCN(C)CC5)cc4)nc23)c1` [Example C100, N-(4-cyano-3-(2-((4-(4-methylpiperazin-1-yl)phenyl)amino)quinazolin-8-yl)phenyl)acrylamide] was tested, and the inhibition at 0.0137 µM (EGFR (ErbB1) T790M L858R) was under 50%, the IC50 (H1975 cells) was over 0.5 µM and the inhibition at 0.041 µM (EGFR (ErbB1)) was under 50%.

With `C=CC(=O)Nc1cccc(-c2cccc3cnc(Nc4ccc(N5CCN(C)CC5)cc4)nc23)c1C(=O)OC` [Example C101, methyl 2-acrylamido-6-(2-((4-(4-methylpiperazin-1-yl)phenyl)amino)quinazolin-8-yl)benzoate] the inhibition at 0.0137 µM (EGFR (ErbB1) T790M L858R) was over 50%, the IC50 (H1975 cells) was under 0.1 µM and the inhibition at 0.041 µM (EGFR (ErbB1)) was under 50%.

Compound `C=CC(=O)Nc1cccc(-c2cccc3cnc(Nc4ccc(N5CCCOCC5)cc4)nc23)c1` [Example C102, N-(3-(2-((4-(1,4-oxazepan-4-yl)phenyl)amino)quinazolin-8-yl)phenyl)acrylamide] has an inhibition at 0.0137 µM (EGFR (ErbB1) T790M L858R) of under 50%, an IC50 (H1975 cells) of under 0.1 µM and an inhibition at 0.041 µM (EGFR (ErbB1)) of under 50%.

With `C=CC(=O)Nc1cccc(-c2cccc3cnc(Nc4ccc(N5CCN(C)CC5)cc4C(=O)OC)nc23)c1` [Example C104, methyl 2-((8-(3-acrylamidophenyl)quinazolin-2-yl)amino)-5-(4-methylpiperazin-1-yl)benzoate] the inhibition at 0.0137 µM (EGFR (ErbB1) T790M L858R) was under 50%, the IC50 (H1975 cells) was over 0.5 µM and the inhibition at 0.041 µM (EGFR (ErbB1)) was under 50%.

In the case of `C=CC(=O)Nc1cccc(-c2cccc3cnc(Nc4ccc(N[C@H]5CCN(C(C)=O)C5)cc4)nc23)c1` [Example C128, (S)-N-(3-(2-((4-((1-acetylpyrrolidin-3-yl)amino)phenyl)amino)quinazolin-8-yl)phenyl)acrylamide], the inhibition at 0.0137 µM (EGFR (ErbB1) T790M L858R) is reported as under 50%, the IC50 (H1975 cells) is reported as under 0.1 µM and the inhibition at 0.041 µM (EGFR (ErbB1)) is reported as under 50%.

In the case of `C=CC(=O)Nc1cccc(-c2cccc3cnc(Nc4ccc(N[C@@H]5CCN(C(C)=O)C5)cc4)nc23)c1` [Example C130, (R)-N-(3-(2-((4-((1-acetylpyrrolidin-3-yl)amino)phenyl)amino)quinazolin-8-yl)phenyl)acrylamide], the inhibition at 0.0137 µM (EGFR (ErbB1) T790M L858R) is reported as under 50%, the IC50 (H1975 cells) is reported as under 0.1 µM and the inhibition at 0.041 µM (EGFR (ErbB1)) is reported as under 50%.

`C=CC(=O)Nc1cccc(-c2cccc3cnc(Nc4ccc(O[C@H]5CCN(C(C)=O)C5)cc4)nc23)c1` [Example C131, (S)-N-(3-(2-((4-((1-acetylpyrrolidin-3-yl)oxy)phenyl)amino)quinazolin-8-yl)phenyl)acrylamide] was tested, and the inhibition at 0.0137 µM (EGFR (ErbB1) T790M L858R) was under 50%, the IC50 (H1975 cells) was under 0.1 µM and the inhibition at 0.041 µM (EGFR (ErbB1)) was under 50%.

In the case of `C=CC(=O)Nc1cc(-c2cccc3cnc(Nc4ccc(N5CCN(C)CC5)cc4)nc23)n[nH]1` [Example C132, N-(3-(2-((4-(4-methylpiperazin-1-yl)phenyl)amino)quinazolin-8-yl)-1H-pyrazol-5-yl)acrylamide], the inhibition at 0.0137 µM (EGFR (ErbB1) T790M L858R) is reported as under 50%, the IC50 (H1975 cells) is reported as 0.1 to 0.5 µM and the inhibition at 0.041 µM (EGFR (ErbB1)) is reported as under 50%.

Compound `C=CC(=O)Nc1cccc(-c2cccc3cnc(Nc4ccc(O[C@@H]5CCN(C(C)=O)C5)cc4)nc23)c1` [Example C133, (R)-N-(3-(2-((4-((1-acetylpyrrolidin-3-yl)oxy)phenyl)amino)quinazolin-8-yl)phenyl)acrylamide] has an inhibition at 0.0137 µM (EGFR (ErbB1) T790M L858R) of under 50%, an IC50 (H1975 cells) of 0.1 to 0.5 µM and an inhibition at 0.041 µM (EGFR (ErbB1)) of under 50%.

Compound `C=CC(=O)Nc1cccc(-c2cccc3cnc(Nc4ccc(NCCF)cc4)nc23)c1` [Example C134, N-(3-(2-((4-((2-fluoroethyl)amino)phenyl)amino)quinazolin-8-yl)phenyl)acrylamide] has an inhibition at 0.0137 µM (EGFR (ErbB1) T790M L858R) of under 50%, an IC50 (H1975 cells) of under 0.1 µM and an inhibition at 0.041 µM (EGFR (ErbB1)) of under 50%.

Work on `C=CC(=O)Nc1cccc(-c2cccc3cnc(Nc4ccc(NCC(F)F)cc4)nc23)c1` [Example C135, N-(3-(2-((4-((2,2-difluoroethyl)amino)phenyl)amino)quinazolin-8-yl)phenyl)acrylamide] yielded an inhibition at 0.0137 µM (EGFR (ErbB1) T790M L858R) of under 50%, an IC50 (H1975 cells) of under 0.1 µM and an inhibition at 0.041 µM (EGFR (ErbB1)) of under 50%.

Source: patent US10172868B2, “Substituted quinazolines for inhibiting kinase activity” (NeuPharma, Inc., priority 2013, dated 2019)
